Assay results as given in patent US20210236449A1, “USE OF CHLOROGENIC ACID IN PREPARING DRUG FOR PREVENTING OR BLOCKING BRAIN AND/OR BONE METASTASES OF LUNG CANCER” (SICHUAN JIUZHANG BIOLOGICAL SCIENCE AND TECHNOLOGY CO., LTD, priority 2018, published 2021).
Marks after values point to notes of the source that are not given here.

System: EGFP-LA795 cells
Experiment: Inhibitory effect of chlorogenic acid on metastasis in LA795 lung cancer mice
Type: in vivo, T739 mice
Conditions: for Abdominal metastasis / Axial bone metastasis / Bloody ascites / Brain metastasis / Limb bone metastasis / Local lymph node metastasis: once a day for 20 days, mice with finding/n = 10
From the text: (1) Animals: T739 mice, half male and half female, weighing 18-22 g, are provided by the Experimental Animal Center of Sichuan University.
(2) Lung cancer cell lines: LA795, provided by Wuhan Procell Life Technology Co., Ltd.; Fetal bovine serum, provided by Hangzhou Sijiqing Bioengineering Materials Co., Ltd.; plasmid EGFP-C1, provided by Clontech; Liposome transfection reagent Lipofectamin 2000, provided by Invitrogen.
LA795 cells were inoculated in a 6-well culture plate at 1×10^7 cells/mL, using DMEM complete medium containing 10% fetal bovine serum, and cultured in a 37° C., 5% CO2 incubator. When the cells were about 70% fused, liposome transfection reagent lipid Lipofectamin2000 was used and LA795 cells were transfected into plasmid EGFP-C1. 48 h after transfection, cells were passed and screened by G 418, then anti-G418 fluorescent positive clones appeared after about 4 weeks. Clones were observed under fluorescent inverted microscope, and one resistant fluorescent cell clone was randomly picked and transferred to 96-well plate for culture. After stepwise expansion, cells were routinely cultured and passaged. 400 μg/ml G418 was used to maintain screening and obtain expanded EGFP-LA795 cells. When EGFP-LA795 cells are 80%-90% fused in the logarithmic growth phase, they are digested with 0.25% trypsin, then centrifuged, and the cells are resuspended in DMEM to prepare a cell suspension for seeding (cell concentration 1×10^7 cells/mL). EGFP-LA795 cells grown on the wall were trypsinized to prepare a single cell suspension, and then diluted appropriately. The cell suspension was mixed with 0.4% trypan blue solution and counted under the microscope. The survival rate of EGFP-LA795 cells was >90%, and the positive clones were picked out under an inverted fluorescence microscope, followed by culture and amplification, to obtain LA795 cells with green fluorescence.
0.2 ml of EGFP-LA795 cell suspension at 1.0×10^7 cells/ml was inoculated into the armpit of mice, and then the mice were randomly divided into groups, 10 mice for each group, including the high-dose chlorogenic acid group, the middle-dose chlorogenic acid group, and the low-dose chlorogenic acid group and the model control group. Chlorogenic acid was administered by intraperitoneal injection, 40 mg/kg for the high-dose group, 20 mg/kg for the middle-dose group, 10 mg/kg for the low-dose group, and the administration volume was 1.0 ml; the model control group was given the same volume of normal saline by intraperitoneal injection, once a day for 20 days. In vivo imaging observations were performed on days 0, 10, and 20, respectively. After the test, the mice were sacrificed by cervical dislocation, and peripheral lymph nodes, axial bones, and long bones of the limbs were taken to observe and count metastases.
10% chloral hydrate was intraperitoneally injected at 4 ml/kg for anesthetization, and mice were put on the black rubber pad prepared for the in vivo imager. The irradiation conditions were GFP, the emission wavelength was 520 nm, the excitation wavelength was 480 nm, and the exposure time was 5 ms. The volume changes and metastasis of the tumor were observed.
Surrounding lymph nodes were taken out, and 8 μm conventional and frozen sections were obtained, and routinely stained with hematoxylin-eosin (HE) every other one, to observe the tumor metastasis under fluorescence microscope and light microscope.
Axial bones (such as ribs, spine, ilium, scapula) and long bones of the limbs of mice were chosen, cut into 0.5 cm×0.3 cm×0.3 cm bone pieces, and fixed with frozen 4% paraformaldehyde solution at 5° C. for 12 h-24 h; the bones were rinsed with phosphate buffer and decalcified with EDTA until the bone slices were completely decalcified. […]

[1] = high dose group, 40 mg/kg intraperitoneal injection
[2] = low dose group, 10 mg/kg intraperitoneal injection
[3] = medium dose group, 20 mg/kg intraperitoneal injection

O=C(/C=C/c1ccc(O)c(O)c1)O[C@@H]1C[C@](O)(C(=O)O)C[C@@H](O)[C@H]1O [Chlorogenic acid, chlorogenic acid]
significantly reduced: number of metastatic foci in mice (low, medium and high dose groups versus model control group)
No metastasis was found: metastasis of LA795 lung cancer cells in mice (20 mg/kg medium-dose group)
1/10*: Abdominal metastasis [1] | Local lymph node metastasis [1] | Local lymph node metastasis [2]
2/10*: Abdominal metastasis [2]
0/10*: Axial bone metastasis [1] | Bloody ascites [1] | Brain metastasis [1] | Limb bone metastasis [1] | Axial bone metastasis [2] | Bloody ascites [2] | Brain metastasis [2] | Limb bone metastasis [2] | Abdominal metastasis [3] | Axial bone metastasis [3] | Bloody ascites [3] | Brain metastasis [3] | Limb bone metastasis [3] | Local lymph node metastasis [3]
